Laboratory results as given in US9023384B2, “Liposome and method for injecting substance to cell using this liposome” (Tokyo Medical and Dental University, priority 2004, dated 2015).

How the values were obtained:
[1] = test system: COX-2 mRNA in U2OS cells carrying expressed Cx43; test: COX-2 expression by RT-PCR after IL-1 stimulation; format: cell-based
Procedure: (§1) Specifically, the U2OS cells used in Example 2 was initially cultured until 80 to 90% density in a 10-cm culture dish, on which a liposome containing the NBD peptide was then allowed to act for 12 hours. In this example, the liposome used was constructed in the same way as in Example 1 except that a solution used contained 50 μL of the NBD peptide.
In FIG. 8, “Cx-U2OS” denotes a result obtained using a liposome having connexon, and “U2OS” denotes a result obtained using a liposome having no connexon. […] Moreover, the suppression of COX-2 expression was not confirmed in the administration of NBD alone, the administration of NBD using the liposome having no Cx43 expression, administration after pretreatment with GA, and the administration of mutant NBD. Furthermore, the NBD effect was not confirmed on U2OS having no Cx43 expression.

[2] = test system: NFκB activity in U2OS cells carrying expressed Cx43; test: NF-kB reporter gene assay (intracellular luciferase activity) after IL-1β stimulation; format: cell-based
Excerpt: As schematically shown in FIG. 6, an IKK complex is activated by IL-1β stimulation or the like and thereby phosphorylates IκB. The phosphorylated IκB is further polyubiquitinated and degraded by a pathway in a proteasome system. As a result, the suppressive effect of IκB on NFκB (p50+p65) disappears. The nuclear-imported NFκB increases the transcriptional activity of a gene of interest. A NEMO Binding Domain ((SEQ ID NO:3); hereinafter, NBD) is known to be a sequence present in the C-terminus of IKKβ, one component in the IKK complex, and be necessary for binding with IKKγ (NEMO). The solubilized NBD oligopeptide originally suppresses normal IKK functions through its competitive inhibition of the binding of IKKβ with NEMO and thereby suppresses the nuclear import of NFκB and the transcription of a gene of interest. […] Thus, in this example, a liposome having connexon consisting of Cx43 was used to attempt the administration of the NBD peptide into cells via a gap junction.
as §1, with “peptide. […]” for “peptide.”

## CC1(C)[C@@H](O)CC[C@]2(C)[C@H]3C(=O)C=C4[C@@H]5C[C@@](C)(C(=O)O)CC[C@]5(C)CC[C@@]4(C)[C@]3(C)CC[C@@H]12 [18β-glycyrrhetinic acid]
[1]; pretreatment with GA
  suppression of COX-2 expression by NBD administration after pretreatment with GA: not confirmed
[2]; pretreatment before NBD administration using Cx43-expressing liposome
  effect of pretreatment with gap junction inhibitor on the NBD effect on NFκB activity: suppressed the NBD effect

## NBD peptide: NEMO Binding Domain oligopeptide (SEQ ID NO:3), administered without liposome (TALDWSWLQTE; listed as Homo sapiens)
[1]; cells carrying expressed Cx43
  suppression of IL-1 stimulation-induced rises in COX-2 expression: not confirmed
[2]; liposome for 12 hours, then IL-1β for 24 hours, cells carrying expressed Cx43
  suppression of IL-1β stimulation-induced rises in NFκB activity: not confirmed
